Data reported in ChEMBL document CHEMBL1143587, “Discovery of S-phase arresting agents derived from noscapine” (J Med Chem, 2005).
Activity calls are given as the source filed them. The calls are words filed in the database; no cut-off is given here.

Legend:
HEK293 [1] = assay: Effect to arrest S-phase on HEK 293 cells at 50 uM was determined; Not significant; type: functional, cell-based; conditions: Homo sapiens
HEK293 [2] = assay: Effect to arrest G2/M-phase on HEK 293 cells at 50 uM was determined; type: functional, Homo sapiens
HEK293 [3] = assay: Effect to arrest S-phase on HEK 293 cells at 50 uM was determined; type: functional, Homo sapiens
HEK293 [4] = assay: Effect to arrest GI-phase on HEK 293 cells at 50 uM was determined; type: functional, Homo sapiens
HEK293 [5] = assay: Effect to arrest S-phase on HEK 293 cells at 10 uM was determined; type: functional, Homo sapiens
HEK293 [6] = assay: Effect to arrest GI-phase on HEK 293 cells at 10 uM was determined; type: functional, Homo sapiens
HEK293 [7] = assay: Effect to arrest G2/M-phase on HEK 293 cells at 10 uM was determined; type: functional, Homo sapiens
HEK293 [8] = assay: Effect to arrest G2/M-phase on HEK 293 cells at 25 uM was determined; type: functional, Homo sapiens
HEK293 [9] = assay: Effect to arrest S-phase on HEK 293 cells at 25 uM was determined; type: functional, Homo sapiens
HEK293 [10] = assay: Effect to arrest GI-phase on HEK 293 cells at 25 uM was determined; type: functional, Homo sapiens
HEK293 [11] = assay: Effect to arrest S-phase on HEK 293 cells at 1 uM was determined; type: functional, Homo sapiens
HEK293 [12] = assay: Effect to arrest GI-phase on HEK 293 cells at 1 uM was determined; type: functional, Homo sapiens
HEK293 [13] = assay: Effect to arrest G2/M-phase on HEK 293 cells at 1 uM was determined; type: functional, Homo sapiens
HEK293 [14] = assay: Compound was tested for inhibition of HEK293 proliferation; type: functional, cell-based; conditions: Homo sapiens

| Compound | Activity (HEK293 [1]) | Effect (HEK293 [5]) | Effect (HEK293 [6]) | Effect (HEK293 [7]) | further results |
| --- | --- | --- | --- | --- | --- |
| COc1cc(-c2c(OC)ccc3c2C(=O)O[C@@H]3[C@H]2c3c(cc4c(c3OC)OCO4)CCN2C)cc(OC)c1OC | inactive | – | – | – | – |
| COc1ccc2c(c1OC)C(=O)O[C@@H]2[C@H]1c2c(cc3c(c2OC)OCO3)CCN1C [NOSCAPINE] | – | – | – | – | Effect (HEK293 [2]): 76%; Effect (HEK293 [3]): 18%; Effect (HEK293 [4]): 6% |
| COc1ccc2c(c1SCc1ccccc1)C(=O)O[C@@H]2[C@H]1c2c(cc3c(c2OC)OCO3)CCN1C | – | 65% | 24% | 11% | – |
| COc1cc2c(c(OC)c1OC)-c1ccc(OC)c(=O)cc1[C@@H](NC(C)=O)CC2 [COLCHICINE] | – | 14% | 3% | 83% | – |
| COc1ccc2c(c1-c1ccc(C(C)(C)C)cc1)C(=O)O[C@@H]2[C@H]1c2c(cc3c(c2OC)OCO3)CCN1C | inactive | – | – | – | – |
| COc1ccc2c(c1OCc1ccsc1)C(=O)O[C@@H]2[C@H]1c2c(cc3c(c2OC)OCO3)CCN1C | – | – | – | – | Effect (HEK293 [8]): 10%; Effect (HEK293 [9]): 62%; Effect (HEK293 [10]): 28% |
| COc1cc(COc2c(OC)ccc3c2C(=O)O[C@@H]3[C@H]2c3c(cc4c(c3OC)OCO4)CCN2C)cc(OC)c1OC | – | 65% | 19% | 16% | Effect (HEK293 [2]): 6%; Effect (HEK293 [11]): 65%; Effect (HEK293 [12]): 24%; Effect (HEK293 [3]): 84%; Effect (HEK293 [4]): 13%; Effect (HEK293 [13]): 11%; EC50 (HEK293 [14]): 1.9 µM |
| COc1ccc2c(c1OCc1ccccc1)C(=O)OC2[C@H]1c2c(cc3c(c2OC)OCO3)CCN1C (stereo not given in full) | – | 57% | 28% | 17% | Effect (HEK293 [8]): 15%; Effect (HEK293 [2]): 10%; Effect (HEK293 [9]): 71%; Effect (HEK293 [3]): 67%; Effect (HEK293 [4]): 23%; EC50 (HEK293 [14]): 15 µM; Effect (HEK293 [10]): 12% |
| COc1ccc2c(c1-c1ccsc1)C(=O)O[C@@H]2[C@H]1c2c(cc3c(c2OC)OCO3)CCN1C | inactive | – | – | – | – |
| COc1ccc2c(c1-c1cc(F)cc(F)c1)C(=O)O[C@@H]2[C@H]1c2c(cc3c(c2OC)OCO3)CCN1C | inactive | – | – | – | – |
| COc1ccc2c(c1OCc1csc(C)n1)C(=O)O[C@@H]2[C@H]1c2c(cc3c(c2OC)OCO3)CCN1C | – | 62% | 28% | 10% | – |
| COc1ccc2c(c1-c1ccc(N(C)C)cc1)C(=O)O[C@@H]2[C@H]1c2c(cc3c(c2OC)OCO3)CCN1C | inactive | – | – | – | – |
